Laboratory results reported in patent US6410054B1, “Immediate release eplerenone compositions” (G. D. Searle & Co., priority 1998, dated 2002).

Experiments:
[1] = Single dose study: plasma pharmacokinetics of eplerenone, open lactone ring form, spironolactone; settings: for concentration at 28 h / concentration at 32 h / concentration at 48 h / concentration at 72 h / concentration at 96 h / half-life / AUC(0-t) / Cmax / MRT / Tmax / concentration at 0.5 h / concentration at 1 h / concentration at 2 h / concentration at 3 h / concentration at 4 h / concentration at 6 h / concentration at 8 h / concentration at 12 h / concentration at 16 h / concentration at 24 h: male, human, plasma, po
Procedure: The pharmacokinetics, safety and antialdosterone activity of single 10, 50, 100, 300 and 1000 mg oral doses of eplerenone were evaluated in a single-center, randomized, double-blind, placebo-controlled study.
The study employed seven parallel dose groups of eight healthy male humans.
The eplerenone capsules administered corresponded to the capsules (or combinations of the capsules) disclosed in Examples 4, 5, 7 and 8 above. The placebo was a conventional capsule containing lactose. […] The fludrocortisone used in the study consisted of commercially available fludrocortisone tablets (Florinef®, Squibb BV).
The subjects, who underwent a ten hour food fast prior to administration of the dose, received a single oral dose of one of the study medications together with about 180 mL of water at 0800 hours. […] Each dose of fludrocortisone was administered with 150 mL of water except for the 1.0 mg dose which was administered with 200 mL of water.
The plasma samples collected from subjects dosed with eplerenone were assayed for concentrations of eplerenone and the open lactone ring form of eplerenone. […] A subset of plasma samples was also assayed for testosterone levels. The urine collected was analyzed to determine concentrations and amounts of eplerenone and the open lactone ring form of eplerenone, the amount of sodium and potassium excreted, and the urinary log10 (sodium/potassium) ratio.

[2] = ADME study of [14C]eplerenone oral solution: excretion in urine, feces, breath; format: in vivo, humans
Procedure: An open-label, single dose study was employed to evaluate the absorption, distribution, metabolism and elimination profile of a single 100 mg dose of an oral solution of eplerenone.
The study employed eight healthy male humans. Each subject received a single 100 mg oral dose of a solution of [^14C]eplerenone (specific activity 0.75 μCi/mg). Plasma, saliva, breath, urine and fecal samples were collected at predetermined intervals and analyzed for sample radioactivity and the concentration of eplerenone and its open lactone ring form. Safety was determined on the basis of laboratory tests, vital signs, and the occurrence and types of adverse events.
The subjects, who underwent an overnight food fast prior to administration of the dose, received at 0800 hours a single 100 mg oral dose of an aqueous oral solution of radiolabeled eplerenone reconstituted in 80 mL of an apple juice/hydroxypropyl-β-cyclodextrin mixture. The subjects swallowed about 200 mL of water one, two and three hours post dosing.
Blood samples were collected at −0.5 (predose), 0.5, 1, 1.5, 2, 2.5, 3, 4, 6, 8, 12, 16, 24, 36, 48, 72 and 96 hours post dose. […] Individual fecal samples were collected beginning immediately after dosing and continuing through 0800 hours on day 8. In addition, one predose fecal sample was provided. Saliva samples were taken at 0.5 hour predose and at 0.5, 1, 2, 4, 6, 12, and 24 hours postdose. Breath samples were taken at 0.5 hour predose and at 1, 2, 3, 4, 6, 8, 12, 24, 36, 48 and 72 hours postdose.

[3] = 100 mg [14C]eplerenone oral solution
[4] = 100 mg [14C]eplerenone oral solution, mean

Structure (SMILES): COC(=O)C1CC2=CC(=O)CCC2(C)C23OC2CC2(C)C(CC[C@@]24CCC(=O)O4)C13 (stereo partly drawn) [eplerenone, methyl hydrogen 9,11α-epoxy-17α-hydroxy-3-oxopregn-4-ene-7α,21-dicarboxylate, γ-lactone]
- concentration at 28 h ([1]; 50 mg): 1.8 ng/mL
- concentration at 32 h ([1]; 50 mg): 0 ng/mL
- concentration at 48 h ([1]; 50 mg): 0 ng/mL
- concentration at 72 h ([1]; 50 mg): 0 ng/mL
- concentration at 96 h ([1]; 50 mg): 0 ng/mL
- half-life ([1]; 50 mg): 2.9 h
- AUC(0-t) ([1]; 100 mg): 7940 ng·h/mL
- Cmax ([1]; 100 mg): 1500 ng/mL
- MRT ([1]; 100 mg): 4.9 h
- Tmax ([1]; 100 mg): 1.5 h
- concentration at 0.5 h ([1]; 100 mg): 758 ng/mL
- concentration at 1 h ([1]; 100 mg): 1220 ng/mL
- concentration at 2 h ([1]; 100 mg): 1360 ng/mL
- concentration at 3 h ([1]; 100 mg): 1110 ng/mL
- concentration at 4 h ([1]; 100 mg): 900 ng/mL
- concentration at 6 h ([1]; 100 mg): 558 ng/mL
- concentration at 8 h ([1]; 100 mg): 275 ng/mL
- concentration at 12 h ([1]; 100 mg): 124 ng/mL
- concentration at 16 h ([1]; 100 mg): 41.9 ng/mL
- concentration at 24 h ([1]; 100 mg): 13.1 ng/mL
- concentration at 28 h ([1]; 100 mg): 6.1 ng/mL
- concentration at 32 h ([1]; 100 mg): 3 ng/mL
- concentration at 48 h ([1]; 100 mg): 0 ng/mL
- concentration at 72 h ([1]; 100 mg): 0 ng/mL
- concentration at 96 h ([1]; 100 mg): 0 ng/mL
- half-life ([1]; 100 mg): 4.9 h
- AUC(0-t) ([1]; 300 mg): 18500 ng·h/mL
- Cmax ([1]; 300 mg): 2970 ng/mL
- MRT ([1]; 300 mg): 5.5 h
- Tmax ([1]; 300 mg): 1.5 h
- concentration at 0.5 h ([1]; 300 mg): 1620 ng/mL
- concentration at 1 h ([1]; 300 mg): 2680 ng/mL
- concentration at 2 h ([1]; 300 mg): 2780 ng/mL
- concentration at 3 h ([1]; 300 mg): 2220 ng/mL
- concentration at 4 h ([1]; 300 mg): 1950 ng/mL
- concentration at 6 h ([1]; 300 mg): 1270 ng/mL
- concentration at 8 h ([1]; 300 mg): 843 ng/mL
- concentration at 12 h ([1]; 300 mg): 333 ng/mL
- concentration at 16 h ([1]; 300 mg): 142 ng/mL
- concentration at 24 h ([1]; 300 mg): 38.3 ng/mL
- concentration at 28 h ([1]; 300 mg): 21.1 ng/mL
- concentration at 32 h ([1]; 300 mg): 11.3 ng/mL
- concentration at 48 h ([1]; 300 mg): 1.7 ng/mL
- concentration at 72 h ([1]; 300 mg): 0 ng/mL
- concentration at 96 h ([1]; 300 mg): 0 ng/mL
- half-life ([1]; 300 mg): 3.7 h
- AUC(0-t) ([1]; 1000 mg): 56400 ng·h/mL
- Cmax ([1]; 1000 mg): 7260 ng/mL
- MRT ([1]; 1000 mg): 7 h
- Tmax ([1]; 1000 mg): 2.5 h
- concentration at 0.5 h ([1]; 1000 mg): 3180 ng/mL
- concentration at 1 h ([1]; 1000 mg): 5260 ng/mL
- concentration at 2 h ([1]; 1000 mg): 5940 ng/mL
- concentration at 3 h ([1]; 1000 mg): 6810 ng/mL
- concentration at 4 h ([1]; 1000 mg): 6220 ng/mL
- concentration at 6 h ([1]; 1000 mg): 4150 ng/mL
- concentration at 8 h ([1]; 1000 mg): 2830 ng/mL
- concentration at 12 h ([1]; 1000 mg): 1340 ng/mL
- concentration at 16 h ([1]; 1000 mg): 647 ng/mL
- concentration at 24 h ([1]; 1000 mg): 208 ng/mL
- concentration at 28 h ([1]; 1000 mg): 107 ng/mL
- concentration at 32 h ([1]; 1000 mg): 61.7 ng/mL
- concentration at 48 h ([1]; 1000 mg): 22.3 ng/mL
- concentration at 72 h ([1]; 1000 mg): 1.4 ng/mL
- concentration at 96 h ([1]; 1000 mg): 0 ng/mL
- half-life ([1]; 1000 mg): 15.1 h
- relationship between eplerenone dose and plasma concentration ([1]; single 10-1000 mg oral doses): linear relationship
- share of urinary and fecal radioactivity due to eplerenone [2, 3]: less than 15%
- urinary radioactivity excreted within the first 24 hours [2, 3]: Over 90%
- dose excreted as total radioactivity in feces [2, 4]: 32.0%
- dose excreted as total radioactivity in urine [2, 4]: 66.6%
- dose excreted in feces as the named form [2, 4]: 0.807%
- dose excreted in urine as the named form [2, 4]: 1.65%
- total radioactivity in the breath ([2]; any time point, any subject): no detectable concentrations
